Source: patent US9340590B2 (priority 2011, dated 2016)
Like-named read-outs stand apart in the source and are kept apart here. Positions of bridges follow the written chain, without caps; N, C: chain ends. Non-standard residues stand in square brackets, D forms with d. Residues, ends and D or L forms follow the SMILES beside them. 1Nal = N[C@@H](Cc1cccc2ccccc12)C(=O)O

Tests used:
Experiment in all cases: cell-based
hNav1.5 = hNav1.5 (Homo sapiens, UniProt Q14524); conditions: IonWorks Quattro, read-out: IWQ Use Nav1.5
hNav1.3 = hNav1.3 (Homo sapiens, UniProt Q9NY46); conditions: IonWorks Quattro, read-out: IWQ Use Nav1.3
hNav1.7 = hNav1.7 (Homo sapiens, UniProt Q15858); assay type: cell-based; conditions: IonWorks Quattro, read-out: IWQ Use Nav1.7
[1] = clamped to −110 mV, depolarized to −10 mV, 5 min after compound, n=2

Sequence of hNav1.3 (Q9NY46 whole entry, looked up): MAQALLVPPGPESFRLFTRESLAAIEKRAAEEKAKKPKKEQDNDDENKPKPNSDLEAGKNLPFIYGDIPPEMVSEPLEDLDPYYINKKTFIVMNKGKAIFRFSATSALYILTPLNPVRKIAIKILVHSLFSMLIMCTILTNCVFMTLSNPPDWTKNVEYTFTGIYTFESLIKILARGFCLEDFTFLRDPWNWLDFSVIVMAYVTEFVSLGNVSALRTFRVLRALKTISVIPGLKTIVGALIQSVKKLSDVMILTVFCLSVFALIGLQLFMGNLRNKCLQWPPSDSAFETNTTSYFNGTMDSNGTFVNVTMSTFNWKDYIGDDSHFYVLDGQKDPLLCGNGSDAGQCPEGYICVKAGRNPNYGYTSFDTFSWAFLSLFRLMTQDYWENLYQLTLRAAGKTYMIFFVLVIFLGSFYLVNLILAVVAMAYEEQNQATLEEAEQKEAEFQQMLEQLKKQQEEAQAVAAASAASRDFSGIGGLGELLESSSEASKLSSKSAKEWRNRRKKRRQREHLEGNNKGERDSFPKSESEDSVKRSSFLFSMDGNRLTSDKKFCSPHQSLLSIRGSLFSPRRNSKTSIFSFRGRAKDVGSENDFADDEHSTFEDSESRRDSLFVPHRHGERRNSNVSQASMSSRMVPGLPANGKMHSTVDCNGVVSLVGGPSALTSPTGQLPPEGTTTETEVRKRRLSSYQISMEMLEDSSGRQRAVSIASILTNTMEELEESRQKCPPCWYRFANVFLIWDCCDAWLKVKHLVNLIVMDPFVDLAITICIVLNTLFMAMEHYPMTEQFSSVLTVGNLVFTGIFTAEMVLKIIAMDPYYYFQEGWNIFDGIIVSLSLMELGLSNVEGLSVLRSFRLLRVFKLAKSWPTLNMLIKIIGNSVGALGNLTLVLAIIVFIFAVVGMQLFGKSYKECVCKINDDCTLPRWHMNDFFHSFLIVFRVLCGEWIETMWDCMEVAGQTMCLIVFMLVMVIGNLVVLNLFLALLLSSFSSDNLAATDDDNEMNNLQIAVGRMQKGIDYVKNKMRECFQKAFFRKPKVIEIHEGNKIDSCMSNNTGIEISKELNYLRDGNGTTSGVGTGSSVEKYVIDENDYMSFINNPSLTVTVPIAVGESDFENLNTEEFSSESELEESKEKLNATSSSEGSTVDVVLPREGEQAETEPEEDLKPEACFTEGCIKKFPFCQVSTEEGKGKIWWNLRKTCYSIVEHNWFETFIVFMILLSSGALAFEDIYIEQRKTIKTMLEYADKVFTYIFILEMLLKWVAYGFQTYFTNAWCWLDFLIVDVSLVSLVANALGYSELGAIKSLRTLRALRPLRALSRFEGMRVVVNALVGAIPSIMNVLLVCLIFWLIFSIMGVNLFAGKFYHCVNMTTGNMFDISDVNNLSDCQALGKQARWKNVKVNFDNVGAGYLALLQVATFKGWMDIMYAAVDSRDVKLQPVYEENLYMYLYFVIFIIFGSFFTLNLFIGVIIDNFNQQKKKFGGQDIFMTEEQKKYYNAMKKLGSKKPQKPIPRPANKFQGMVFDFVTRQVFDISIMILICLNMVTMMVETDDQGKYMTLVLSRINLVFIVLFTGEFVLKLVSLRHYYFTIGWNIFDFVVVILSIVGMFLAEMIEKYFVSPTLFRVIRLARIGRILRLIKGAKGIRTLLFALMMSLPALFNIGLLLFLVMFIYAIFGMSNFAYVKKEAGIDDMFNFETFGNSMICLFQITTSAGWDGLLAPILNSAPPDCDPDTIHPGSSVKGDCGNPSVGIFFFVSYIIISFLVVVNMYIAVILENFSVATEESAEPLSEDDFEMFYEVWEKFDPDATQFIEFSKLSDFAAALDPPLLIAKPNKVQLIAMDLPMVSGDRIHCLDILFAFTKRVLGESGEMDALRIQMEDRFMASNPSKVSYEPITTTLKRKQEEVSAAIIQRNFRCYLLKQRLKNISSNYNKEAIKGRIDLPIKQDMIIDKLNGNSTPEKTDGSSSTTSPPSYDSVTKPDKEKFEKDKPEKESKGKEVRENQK
Sequence of hNav1.7 (Q15858 whole entry, looked up): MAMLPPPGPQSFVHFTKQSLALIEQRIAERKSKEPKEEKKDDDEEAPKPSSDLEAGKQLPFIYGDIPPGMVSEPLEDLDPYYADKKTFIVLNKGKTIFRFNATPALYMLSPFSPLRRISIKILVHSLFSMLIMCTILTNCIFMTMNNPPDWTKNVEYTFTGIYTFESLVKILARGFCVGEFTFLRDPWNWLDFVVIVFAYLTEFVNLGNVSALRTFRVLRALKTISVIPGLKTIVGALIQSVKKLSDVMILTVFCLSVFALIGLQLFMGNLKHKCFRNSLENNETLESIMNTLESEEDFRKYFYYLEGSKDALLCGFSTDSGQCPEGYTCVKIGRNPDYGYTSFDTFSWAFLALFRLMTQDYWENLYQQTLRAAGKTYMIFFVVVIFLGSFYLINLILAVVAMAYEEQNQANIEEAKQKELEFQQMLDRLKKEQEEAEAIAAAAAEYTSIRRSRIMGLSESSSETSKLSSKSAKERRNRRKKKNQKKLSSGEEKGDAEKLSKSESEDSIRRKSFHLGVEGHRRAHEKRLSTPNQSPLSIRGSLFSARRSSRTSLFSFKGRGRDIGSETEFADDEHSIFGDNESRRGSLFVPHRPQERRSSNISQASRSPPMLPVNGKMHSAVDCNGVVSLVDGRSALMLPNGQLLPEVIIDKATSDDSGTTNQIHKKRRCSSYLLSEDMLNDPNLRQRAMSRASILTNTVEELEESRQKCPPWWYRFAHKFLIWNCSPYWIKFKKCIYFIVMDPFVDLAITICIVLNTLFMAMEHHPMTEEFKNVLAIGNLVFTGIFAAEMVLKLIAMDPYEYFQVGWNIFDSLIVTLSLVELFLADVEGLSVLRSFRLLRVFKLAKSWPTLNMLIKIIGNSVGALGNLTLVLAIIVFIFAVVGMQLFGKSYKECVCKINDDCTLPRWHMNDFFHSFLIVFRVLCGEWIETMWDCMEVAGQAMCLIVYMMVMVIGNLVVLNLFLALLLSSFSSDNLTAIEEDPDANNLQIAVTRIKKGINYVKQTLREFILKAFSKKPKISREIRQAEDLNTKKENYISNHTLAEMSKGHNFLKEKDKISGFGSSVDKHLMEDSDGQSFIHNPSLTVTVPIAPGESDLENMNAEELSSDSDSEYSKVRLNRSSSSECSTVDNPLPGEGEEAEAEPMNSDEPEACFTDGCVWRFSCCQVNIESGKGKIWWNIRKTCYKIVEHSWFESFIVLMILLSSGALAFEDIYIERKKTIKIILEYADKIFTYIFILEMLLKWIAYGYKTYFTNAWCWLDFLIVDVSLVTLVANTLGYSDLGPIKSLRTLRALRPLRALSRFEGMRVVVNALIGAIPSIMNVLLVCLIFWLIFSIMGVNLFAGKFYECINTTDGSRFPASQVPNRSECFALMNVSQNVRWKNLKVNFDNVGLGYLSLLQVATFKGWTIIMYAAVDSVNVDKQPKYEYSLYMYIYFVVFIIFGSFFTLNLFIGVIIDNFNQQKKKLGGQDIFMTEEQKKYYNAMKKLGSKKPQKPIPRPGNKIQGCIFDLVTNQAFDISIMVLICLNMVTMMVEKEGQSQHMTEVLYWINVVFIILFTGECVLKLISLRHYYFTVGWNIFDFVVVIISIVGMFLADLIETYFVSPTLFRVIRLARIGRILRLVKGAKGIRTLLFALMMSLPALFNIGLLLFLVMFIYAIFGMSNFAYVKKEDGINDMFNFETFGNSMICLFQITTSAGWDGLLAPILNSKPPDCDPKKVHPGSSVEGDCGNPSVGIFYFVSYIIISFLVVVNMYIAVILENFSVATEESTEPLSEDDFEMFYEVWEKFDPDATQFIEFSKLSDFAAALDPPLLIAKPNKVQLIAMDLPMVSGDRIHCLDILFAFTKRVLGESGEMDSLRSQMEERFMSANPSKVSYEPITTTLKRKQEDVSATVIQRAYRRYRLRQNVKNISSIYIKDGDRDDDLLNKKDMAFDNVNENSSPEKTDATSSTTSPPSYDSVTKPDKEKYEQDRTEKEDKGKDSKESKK

CC[C@H](C)[C@@H]1NC(=O)[C@@H]2CSSC[C@@H]3NC(=O)[C@H](C(C)C)NC(=O)[C@H](CC(C)C)NC(=O)[C@H](CC(N)=O)NC(=O)[C@@H]4CCCN4C(=O)[C@H](CCCNC(=N)N)NC(=O)[C@H](CSSC[C@H](NC(=O)[C@@H](N)CC(=O)O)C(=O)N[C@@H](CC(C)C)C(=O)NCC(=O)N[C@@H](C(C)C)C(=O)N[C@@H](Cc4ccccc4)C(=O)N[C@@H](CCCNC(=N)N)C(=O)N[C@@H](CCCCN)C(=O)N2)NC(=O)[C@H](CSSC[C@@H](C(=O)N[C@@H](CCCCN)C(=O)N[C@@H](Cc2ccc(O)cc2)C(=O)N[C@H](C(=O)N[C@@H](Cc2ccccc2)C(N)=O)C(C)C)NC(=O)[C@H](Cc2c[nH]c4ccccc24)NC(=O)[C@H](CCCCN)NC(=O)[C@H](Cc2c[nH]cn2)NC(=O)[C@H]([C@@H](C)O)NC(=O)[C@H](CCCNC(=N)N)NC(=O)[C@H](CO)NC3=O)NC(=O)[C@H](CCCCN)NC(=O)[C@H](CC(=O)O)NC(=O)[C@H](CC(N)=O)NC(=O)[C@H](CC(=O)O)NC(=O)[C@@H]2CCCN2C1=O [compound 618] (H-DCLGVFRKCIPDNDKCCRPNLVCSRTHKWCKYVF-NH2; disulfide 2-17, 9-23, 16-30)
IC50 (hNav1.5; use-dependent protocol, hNav1.5): 9.4 µM | IC50 (hNav1.3; use-dependent protocol, hNav1.3): 0.099 µM | IC50 (hNav1.7; use-dependent protocol, hNav1.7): 0.12 µM

CC[C@H](C)[C@@H]1NC(=O)[C@@H]2CSSC[C@@H]3NC(=O)[C@H](C(C)C)NC(=O)[C@H](CC(C)C)NC(=O)[C@H](CC(N)=O)NC(=O)[C@@H]4CCCN4C(=O)[C@H](CCCNC(=N)N)NC(=O)[C@H](CSSC[C@H](NC(=O)[C@@H](N)CC(=O)O)C(=O)N[C@@H](CC(C)C)C(=O)NCC(=O)N[C@@H](Cc4ccccc4)C(=O)N[C@@H](CCC(N)=O)C(=O)N[C@@H](CCCNC(=N)N)C(=O)N[C@@H](CCCCN)C(=O)N2)NC(=O)[C@H](CSSC[C@@H](C(=O)N[C@@H](CCCCN)C(=O)N[C@@H](Cc2ccc(O)cc2)C(=O)N[C@H](C(=O)N[C@@H](Cc2ccccc2)C(N)=O)C(C)C)NC(=O)[C@H](Cc2c[nH]c4ccccc24)NC(=O)[C@H](CCCCN)NC(=O)[C@H](Cc2c[nH]cn2)NC(=O)[C@H]([C@@H](C)O)NC(=O)[C@H](CCCNC(=N)N)NC(=O)[C@H](CO)NC3=O)NC(=O)[C@H](CCCCN)NC(=O)[C@H](CC(=O)O)NC(=O)[C@H](CC(N)=O)NC(=O)[C@H](CC(=O)O)NC(=O)[C@@H]2CCCN2C1=O [SEQ ID NO: 279] (H-DCLGFQRKCIPDNDKCCRPNLVCSRTHKWCKYVF-NH2; disulfide 2-17, 9-23, 16-30)
IC50 (hNav1.5; [1]): 7.57 µM | IC50 (hNav1.3; [1]): 5.96 µM | IC50 (hNav1.7; [1]): 8.62 µM

CC[C@H](C)[C@@H]1NC(=O)[C@@H]2CSSC[C@@H]3NC(=O)[C@H](C(C)C)NC(=O)[C@H](CC(C)C)NC(=O)[C@H](CC(N)=O)NC(=O)[C@@H]4CCCN4C(=O)[C@H](CCCNC(=N)N)NC(=O)[C@H](CSSC[C@H](NC(=O)[C@@H](N)CC(=O)O)C(=O)N[C@@H](CC(C)C)C(=O)NCC(=O)N[C@@H](Cc4ccccc4)C(=O)N[C@@H](Cc4c[nH]c5ccccc45)C(=O)N[C@@H](CCCNC(=N)N)C(=O)N[C@@H](CCCCN)C(=O)N2)NC(=O)[C@H](CSSC[C@@H](C(=O)N[C@@H](CCCCN)C(=O)N[C@@H](Cc2ccc(O)cc2)C(=O)N[C@@H](Cc2cccc4ccccc24)C(=O)N[C@@H](Cc2ccccc2)C(N)=O)NC(=O)[C@H](Cc2c[nH]c4ccccc24)NC(=O)[C@H](CCCCN)NC(=O)[C@H](Cc2c[nH]cn2)NC(=O)[C@H]([C@@H](C)O)NC(=O)[C@H](CCCNC(=N)N)NC(=O)[C@H](CO)NC3=O)NC(=O)[C@H](CCCCN)NC(=O)[C@H](CC(=O)O)NC(=O)[C@H](CC(N)=O)NC(=O)[C@H](CC(=O)O)NC(=O)[C@@H]2CCCN2C1=O [compound 461] (H-DCLGFWRKCIPDNDKCCRPNLVCSRTHKWCKY[1Nal]F-NH2; disulfide 2-17, 9-23, 16-30)
IC50 (hNav1.5; use-dependent block, hNav1.5): > 5 µM | IC50 (hNav1.3; use-dependent block, hNav1.3): 0.05 µM | IC50 (hNav1.7; use-dependent block, hNav1.7): 0.1 µM
